The values below come from article PMC7774326, “Inhibition of Soybean 15-Lipoxygenase and Human 5-Lipoxygenase by Extracts of Leaves, Stem Bark, Phenols and Catechols Isolated From Lithraea caustica (Anacardiaceae)” (Frontiers in Pharmacology, 2020).

Where two headings read alike, the source gives them in different places.

The target of experiment [1] is T1, 15 soybean lipoxygenase (15-sLOX) (Glycine max, UniProt P08170).
T1 construct: purchased Cayman Chemical 60712
T1 sequence (P08170 1-839): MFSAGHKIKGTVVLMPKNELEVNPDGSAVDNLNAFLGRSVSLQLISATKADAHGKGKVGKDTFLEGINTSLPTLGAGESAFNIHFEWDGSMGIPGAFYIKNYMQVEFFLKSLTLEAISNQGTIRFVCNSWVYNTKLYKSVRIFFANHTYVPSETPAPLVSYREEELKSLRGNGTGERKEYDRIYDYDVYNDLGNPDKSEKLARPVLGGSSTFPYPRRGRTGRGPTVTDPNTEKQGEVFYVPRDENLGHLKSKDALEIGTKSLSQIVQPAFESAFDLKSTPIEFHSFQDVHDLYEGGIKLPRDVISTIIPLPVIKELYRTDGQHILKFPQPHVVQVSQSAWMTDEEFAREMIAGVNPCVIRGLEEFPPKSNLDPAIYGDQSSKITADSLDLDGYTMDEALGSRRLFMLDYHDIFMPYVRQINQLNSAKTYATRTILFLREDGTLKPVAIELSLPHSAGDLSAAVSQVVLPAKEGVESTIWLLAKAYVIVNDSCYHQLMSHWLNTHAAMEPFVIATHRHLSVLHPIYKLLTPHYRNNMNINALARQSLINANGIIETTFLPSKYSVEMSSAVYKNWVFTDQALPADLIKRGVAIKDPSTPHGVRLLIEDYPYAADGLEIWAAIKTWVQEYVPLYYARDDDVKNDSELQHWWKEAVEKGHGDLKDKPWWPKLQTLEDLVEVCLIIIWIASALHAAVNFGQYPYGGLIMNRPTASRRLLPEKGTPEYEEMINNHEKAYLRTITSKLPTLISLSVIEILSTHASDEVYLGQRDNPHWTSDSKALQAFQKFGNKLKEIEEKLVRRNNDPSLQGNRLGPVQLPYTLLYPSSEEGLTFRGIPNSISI
The experiment can be described thus: In vitro assay of 15 soybean lipoxygenase inhibition. The experiment is classed as biochemical. Here is the method: Assays of inhibition of 15-sLOX were performed using a previous published methodology ([Tirapegui et al., 2017]), with minor modifications. In shortly, the activity of 15-sLOX (Cayman Chemical Item No. 60712) was determined following the formation of reaction products at 234 nm (ε = 25,000 M^−1cm^−1) with a Perkin-Elmer Lambda 25 UV/Vis (LabMakelaar Benelux B.V. Zuid-Holland, Nederland). All reactions were performed at a final volume of 2 ml and stirred using a magnetic bar at room temperature. The reaction medium used contained 0.1 M HEPES buffer (pH 7.4), Triton X-100 0.01%, and the linoleic acid substrate at a 10 μM concentration determine preliminary percent inhibition (% I). The concentration was determined quantitatively by allowing the enzymatic reaction to go to completion. The reaction was carried out by adding the inhibitor (sample) in methanol to the cuvette with the substrate buffer, and finally the enzyme was added. Nordihydroguaiaretic acid was used as positive control. Assays were performed in duplicate on two different days. IC50 values were determined by measuring enzyme activity at different concentrations of inhibitor dissolved in methanol; in the range of the initial velocity of the enzyme reaction. Finally, the inhibition% vs. the inhibitor concentration was plotted, giving a hyperbolic saturation curve using GraphPad Prism Demo.

Experiment [2] deals with T2, 5 human lipoxygenase (5-hLOX) (Homo sapiens, UniProt P09917).
T2 construct: purchased Cayman Chemical 60402
T2 sequence (P09917 1-674): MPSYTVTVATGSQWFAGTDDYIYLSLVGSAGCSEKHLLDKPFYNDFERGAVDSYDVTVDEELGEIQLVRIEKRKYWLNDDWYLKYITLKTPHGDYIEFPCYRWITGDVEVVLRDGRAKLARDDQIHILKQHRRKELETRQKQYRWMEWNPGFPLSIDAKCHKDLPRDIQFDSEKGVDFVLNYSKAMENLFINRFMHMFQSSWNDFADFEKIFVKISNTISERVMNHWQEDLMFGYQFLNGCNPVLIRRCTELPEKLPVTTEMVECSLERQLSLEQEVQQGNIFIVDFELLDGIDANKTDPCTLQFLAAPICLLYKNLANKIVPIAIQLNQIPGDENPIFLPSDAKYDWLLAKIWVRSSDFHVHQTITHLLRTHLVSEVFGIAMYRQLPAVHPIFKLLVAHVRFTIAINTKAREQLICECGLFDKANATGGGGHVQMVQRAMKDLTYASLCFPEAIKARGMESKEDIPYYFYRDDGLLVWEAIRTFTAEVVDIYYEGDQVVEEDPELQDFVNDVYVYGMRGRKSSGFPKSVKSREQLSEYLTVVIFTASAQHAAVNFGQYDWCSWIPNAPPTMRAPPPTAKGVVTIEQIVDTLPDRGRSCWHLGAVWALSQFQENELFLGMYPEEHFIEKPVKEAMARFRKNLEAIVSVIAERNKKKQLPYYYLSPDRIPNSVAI
Put plainly: In vitro assay of 5 human lipoxygenase inhibition. The experiment is classed as biochemical. Here is the method: Assays of inhibition of 5-hLOX were performed using a previous published methodology ([Vásquez-Martínez et al., 2019]), with minor modifications. In shortly, the enzyme (Cayman Chemical Item No. 60402) was diluted (1:500) in the assay buffer (HEPES 50 mM, EDTA 2 mM, ATP 10 μM and CaCl2 10 μM at pH 7.5) and mixed with 10 μM of 2′,7′-dichlorofluorescin diacetate (H2DCFDA) dye. The reaction mixture was incubated for 15 min in the assay plate. Subsequently, 33.3 μl of assay buffer was added per well, and 3.3 μl of inhibitor was added to a final concentration of 10 μM; this reaction mixture was incubated for 30 min. The reaction was started by addition of AA (3.3 μM) and was incubated for 1 h and fluorescence was read in a multimode detector Synergy™ HT Multi-Mode Microplate Reader (Biotek, Winooski, VT, United States) at 480 nm excitation/ 520 nm emission after a reaction that had proceeded for 1 h at room temperature. The IC50 values were obtained using the nonlinear curve- fitting program of Graph Pad Prism Demo.

The subject of the next experiment is 5-hLOX. Further details: method as in Sadik et al., 2003. Conditions: known flavonoid inhibitors of 5-hLOX; ref Sadik et al., 2003; cited from earlier work.
Where [3] appears, read: class symbol NA, read-out: IC50 5-hLOX Inhibition.

For the compound `CCCC/C=C\CCCCCCCCCc1cccc(O)c1O` [Compound 2, 3-[(10Z)-pentadec-10′-en-1-yl]-catechol], the IC50 was found to be 54.8 µM in experiment [1] and 2.09 µM in experiment [2]. Turning to `CCCCCCCCCCCCCCCc1cccc(O)c1O` [Compound 3, 3-n-pentadecylcatechol], the half-maximal inhibitory concentration (IC50) in experiment [1] was 55.3 µM; in experiment [2] it was 2.74 µM. `CCCCCCCCCCCCCCCc1cccc(OC(C)=O)c1OC(C)=O` [Compound 5]: the IC50 in experiment [1] and in experiment [2] (setting [3]) was above 124 µM in each case. In the case of `O=c1c(O)c(-c2ccc(O)c(O)c2)oc2cc(O)cc(O)c12` [quercetin], the IC50 in the experiment with 5-hLOX is 0.6 µM. `Oc1cc(O)c2c(c1)O[C@H](c1ccc(O)c(O)c1)[C@H](O)C2` [(−)-epicatechin]: the half-maximal inhibitory concentration (IC50) with 5-hLOX is 22 µM. Regarding `O=C(O[C@@H]1Cc2c(O)cc(O)cc2O[C@@H]1c1cc(O)c(O)c(O)c1)c1cc(O)c(O)c(O)c1` [(−)-epigallocatechin gallate], the IC50 in the experiment with 5-hLOX was 3.1 µM.

Consider `CCCCC=CCCCCCCCCCc1cccc(OC(C)=O)c1OC(C)=O` [Compound 4], for which the IC50 in experiment [1] and in experiment [2] (setting [3]) was above 124 µM in each case.
